Read-outs that look alike come from different tables or passages of the source.
System: MCF7 (breast cancer) cells
Assay: MTT cytotoxicity assay in MCF7 breast cancer cells
Assay type: cell-based
Conditions: 65 hours incubation, read-out: IC50, viability of MCF7 cells from the MTT assay
Experimental: The cyctoxicity of compounds was determined in MCF 7 (breast cancer) cells.
MCF7 cells were grown in RPMI 1640 media with 10 nM estrogen and 1 mM insulin. Cells were tyripsinized and resuspended at a density of 2.2×10^4 cells per mL. 500 μL of this suspension was added to each well in a 24 well plate. The plates were incubated at 37° C. and 5% CO2 atmosphere overnight. The media was changed, and plates were dosed in triplicate with compound dissolved in DMSO. Cells were dosed not to exceed 0.5% DMSO in solution. Cells were dosed to a final concentration of 100, 50, 25, 12.5, and 6.25 μM of compound. 5-Flurouracil was used as a positive control and dosed in the same manner. Plates were incubated for 65 hours prior to the addition of MTT solution. 500 μL of a 193 μg/mL MTT and media solution was added to each well. Plates were incubated for 3 hours. The MTT solution was removed and 500 μL of DMSO was added to each well. Cells were imaged using GS 800 Bio Rad scanner and Quality One Software. IC50 curves were determined by plotting viability verses compound concentration. Kaleidagraph software was used to calculate the R value for each logarithmic curve fitting.

Row | Compound | IC50 [µM] | IC50 (Homo sapiens, MCF7, 65 h) [µM]
1 | COc1ccccc1C(OCc1cn([C@H]2C[C@H](O)[C@@H](CO)O2)c(=O)[nH]c1=O)C(C)(C)C (some centres unmarked) [MPB-1-36, 5-[1-(2-methoxyphenyl)-2,2-(dimethyl)propoxymethyl]-2′-deoxyuridine] | 94 | –
2 | COCC#Cc1ccc(C(OCc2cn([C@H]3C[C@H](O)[C@@H](CO)O3)c(=O)[nH]c2=O)C(C)(C)C)c([N+](=O)[O-])c1 (some centres unmarked) [VAL-1-48, 5-[1-(4-{3-methoxy}proyn-1yl-2-nitrophenyl)-2,2-(dimethyl)-1-propoxymethyl]-2′-deoxyuridine] | 74 ± 7 | –
3 | O=c1[nH]c(=O)n([C@H]2C[C@H](O)[C@@H](CO)O2)cc1COC(c1ccccc1)C1CCCCC1 (some centres unmarked) [PRW-1-13, 5-[1-(phenyl)-1-(cyclohexyl)methoxymethyl]-2′-deoxyundine] | 93 | –
4 | COc1cccc(C(OCc2cn([C@H]3C[C@H](O)[C@@H](CO)O3)c(=O)[nH]c2=O)C(C)(C)C)c1 (some centres unmarked) [SS-1-11, 5-[1-(3-methoxyphenyl)-2,2-(dimethyl)propoxymethyl]-2′-deoxyundine] | 66 | –
5 | CC(C)(C)C(OCc1cn([C@H]2C[C@H](O)[C@@H](CO)O2)c(=O)[nH]c1=O)c1ccc(I)cc1[N+](=O)[O-] (some centres unmarked) [MPB-1-33, 5-[1-(4-iodo-2-nitrophenyl)-2,2-(dimethyl)propoxymethyl]-2′-deoxyuridine] | 56 ± 6 | –
6 | O=c1[nH]c(=O)n([C@H]2C[C@H](O)[C@@H](CO)O2)cc1COC(c1ccccc1)c1ccccc1[N+](=O)[O-] (some centres unmarked) [KB-1-85, 5-[{(2-nitrophenyl)phenyl}methoxymethyl]-2′-deoxyundine] | 50 | –
7 | C#Cc1ccc(C(OCc2cn([C@H]3C[C@H](O)[C@@H](CO)O3)c(=O)[nH]c2=O)C(C)(C)C)c([N+](=O)[O-])c1 (some centres unmarked) [VAL-1-50, 5-[1-(4-acetylenyl-2-nitrophenyl)-2,2-(dimethyl)propoxymethyl]-2′-deoxyuridine] | 89 ± 14 | –
8 | CC(C)(C)C(OCc1cn([C@H]2C[C@H](O)[C@@H](CO)O2)c(=O)[nH]c1=O)c1c(Cl)cccc1Cl (some centres unmarked) [MPB-1-57, 5-[1-(2,6-dichlorophenyl)-2,2-(dimethyl)propoxymethyl]-2′-deoxyuridine] | 60 | –
9 | CC(OCc1cn([C@H]2C[C@H](O)[C@@H](CO)O2)c(=O)[nH]c1=O)c1ccccc1 (some centres unmarked) [VAL-1-10, 5-[1-(phenyl)ethoxymethyl]-2′-deoxyuridine] | – | > 200
10 | CC(OCc1cn([C@H]2C[C@H](O)[C@@H](CO)O2)c(=O)[nH]c1=O)c1ccccc1[N+](=O)[O-] (some centres unmarked) [VAL-1-26, 5-[1-(2-nitrophenyl)ethoxymethyl]-2′-deoxyuridine] | ~150 | –
11 | CC(C)(C)C(OCc1c[nH]c(=O)[nH]c1=O)c1ccccc1 (centres unmarked) [KB-1-23, 5-[1-phenyl-2,2-(dimethyl)propoxymethyl]uracil] | 59 | –
